Measurements published in patent publication US20060069132A1, “Azolecarboxamide herbicides” (priority 2004, published 2006).
Where two headings read alike, the source gives them in different places.

Tests used:
morningglory = experiment: Test A pre-/postemergence herbicide test; type: in vivo, Ipomoea spp.; details: Ipomoea, 240 h; for pest or weed control at 500 g/ha: 500 g ai/ha; for pest or weed control at 2000 g/ha: 2000 g ai/ha
How it was run: (§1)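 Pre: seeded sandy loam, directed soil spray, compound in non-phytotoxic solvent + surfactant. Post: 1–2-leaf plants (2–10 cm), sprayed to runoff. Greenhouse ~10 d; visual injury vs untreated, 0–100 scale.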

velvetleaf = experiment: Test A pre-/postemergence herbicide test; type: in vivo, Abutilon theophrasti; details: Abutilon theophrasti, 240 h; for pest or weed control at 2000 g/ha: 2000 g ai/ha
How it was run: as §1

bermudagrass = experiment: Test C pre-/postemergence herbicide test; type: in vivo, Cynodon dactylon; details: for pest or weed control at 250 g/ha: 250 g ai/ha; for pest or weed control at 125 g/ha: 125 g ai/ha
How it was run: (§2)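 Visual injury scores run from 0 (no effect) to 100 (complete control), assessed relative to untreated controls 12 to 14 days after treatment in the greenhouse. Chemicals were formulated in a non-phytotoxic solvent mixture with surfactant and applied to soil after planting or to emerged plants at the 1- to 4-leaf stage.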

Surinam grass = experiment: Test C pre-/postemergence herbicide test; type: in vivo, Urochloa decumbens; details: for pest or weed control at 125 g/ha: 125 g ai/ha
How it was run: as §2

cocklebur = experiment: Test C pre-/postemergence herbicide test; type: in vivo, Xanthium strumarium; details: for pest or weed control at 250 g/ha: 250 g ai/ha; for pest or weed control at 125 g/ha: 125 g ai/ha
How it was run: as §2

goosegrass = experiment: Test C pre-/postemergence herbicide test; type: in vivo, Eleusine indica; details: for pest or weed control at 125 g/ha: 125 g ai/ha
How it was run: as §2

johnsongrass = experiment: Test C pre-/postemergence herbicide test; type: in vivo, Sorghum halepense; details: for pest or weed control at 125 g/ha: 125 g ai/ha
How it was run: as §2

pigweed = experiment: Test C pre-/postemergence herbicide test; type: in vivo, Amaranthus retroflexus; details: for pest or weed control at 125 g/ha: 125 g ai/ha
How it was run: as §2

soybean = experiment: Test C pre-/postemergence herbicide test; type: in vivo, Glycine max; details: for plant injury at 125 g/ha: 125 g ai/ha
How it was run: as §2

[1] = system: smallflower umbrella sedge; experiment: Test C flooded paddy test; type: in vivo, Cyperus difformis; details: Cyperus difformis
ducksalad = experiment: Test C flooded paddy test; type: in vivo, Heteranthera limosa; details: Heteranthera limosa
[2] = post-emergence, Postemergence, 0 to 100 scale, 0 no effect, 100 complete control, read-out: Plant response rating, Morningglory

CCOC(=O)c1cccc(NC(=O)c2cc(C(C)(C)C)nn2CC)c1 [Compound 80, ethyl 3-[[[3-(1,1-dimethylethyl)-1-ethyl-1H-pyrazol-5-yl]carbonyl]-amino]benzoate]
pest or weed control at 500 g/ha (morningglory; [2]): 40%
pest or weed control at 2000 g/ha (morningglory; [2]): 50%
pest or weed control at 500 g/ha (morningglory; pre-emergence, Preemergence, visual rating, 0 to 100 scale (0 no effect, 100 complete control), read-out: Morningglory plant response rating): 15%
pest or weed control at 2000 g/ha (morningglory; pre-emergence, Preemergence, 0 to 100 scale, 0 no effect, 100 complete control, read-out: Morningglory plant response rating): 30%
pest or weed control at 2000 g/ha (velvetleaf; post-emergence, Postemergence, 0 to 100 scale, 0 no effect, 100 complete control, read-out: Plant response rating, Velvetleaf): 75%
pest or weed control at 500 g/ha (velvetleaf; pre-emergence, Preemergence, 500 g ai/ha, visual rating, 0 to 100 scale (0 no effect, 100 complete control), read-out: Velvetleaf plant response rating): 10%
pest or weed control at 2000 g/ha (velvetleaf; pre-emergence, Preemergence, visual rating, 0 to 100 scale (0 no effect, 100 complete control), read-out: Velvetleaf plant response rating): 10%
Plant response rating (0 = no effect, 100 = complete control), Bermudagrass (bermudagrass; 62 g ai/ha, preemergence): 10
pest or weed control at 250 g/ha (bermudagrass; Cynodon dactylon, post-emergence, 312 h, Postemergence, scale 0 to 100, read-out: Bermudagrass plant response rating): 100%
pest or weed control at 125 g/ha (bermudagrass; Cynodon dactylon, post-emergence, 312 h, postemergence, scale 0 to 100, read-out: Plant response rating, Bermudagrass): 100%
pest or weed control at 31 g/ha (bermudagrass; Cynodon dactylon, pre-emergence, 312 h, 31 g ai/ha, preemergence, scale 0 to 100, read-out: Plant response rating, Bermudagrass): 0%
pest or weed control at 125 g/ha (bermudagrass; Cynodon dactylon, pre-emergence, 312 h, scale 0 (no effect) to 100 (complete control), visual, 12 to 14 days, read-out: Plant response rating, Bermudagrass): 10%
pest or weed control at 250 g/ha (bermudagrass; Cynodon dactylon, pre-emergence, 312 h, scale 0 to 100 (0 no effect, 100 complete control), visual, 12 to 14 days, read-out: Plant response rating, Bermudagrass): 10%
Plant response rating (0 = no effect, 100 = complete control), Surinam Grass (Surinam grass; 62 g ai/ha, preemergence): 0
pest or weed control at 250 g/ha (Surinam grass; Urochloa decumbens, post-emergence, 312 h, Postemergence, 250 g ai/ha, scale 0 to 100, 0 no effect, 100 complete control, read-out: Plant response rating, Surinam Grass): 80%
pest or weed control at 125 g/ha (Surinam grass; Urochloa decumbens, post-emergence, 312 h, postemergence, scale 0 to 100, read-out: Plant response rating, Surinam Grass): 80%
pest or weed control at 62 g/ha (Surinam grass; Urochloa decumbens, post-emergence, 312 h, postemergence, 62 g ai/ha, scale 0 to 100, read-out: Plant response rating, Surinam Grass): 80%
pest or weed control at 31 g/ha (Surinam grass; Urochloa decumbens, pre-emergence, 312 h, 31 g ai/ha, preemergence, scale 0 to 100, read-out: Plant response rating, Surinam Grass): 0%
pest or weed control at 125 g/ha (Surinam grass; Urochloa decumbens, pre-emergence, 312 h, scale 0 (no effect) to 100 (complete control), visual, 12 to 14 days, read-out: Plant response rating, Surinam Grass): 10%
Plant response rating (0 = no effect, 100 = complete control), Cocklebur (cocklebur; 62 g ai/ha, preemergence): 0
pest or weed control at 250 g/ha (cocklebur; Xanthium strumarium, post-emergence, 312 h, Postemergence, scale 0 to 100, 0 no effect, 100 complete control, read-out: Plant response rating, Cocklebur): 100%
pest or weed control at 125 g/ha (cocklebur; Xanthium strumarium, post-emergence, 312 h, postemergence, scale 0 to 100, read-out: Plant response rating, Cocklebur): 90%
pest or weed control at 31 g/ha (cocklebur; Xanthium strumarium, post-emergence, 312 h, postemergence, 31 g ai/ha, scale 0 to 100, read-out: Plant response rating, Cocklebur): 70%
pest or weed control at 62 g/ha (cocklebur; Xanthium strumarium, post-emergence, 312 h, postemergence, 62 g ai/ha, scale 0 to 100, read-out: Plant response rating, Cocklebur): 90%
pest or weed control at 125 g/ha (cocklebur; Xanthium strumarium, pre-emergence, 312 h, scale 0 (no effect) to 100 (complete control), visual, 12 to 14 days, read-out: Plant response rating, Cocklebur): 10%
pest or weed control at 250 g/ha (cocklebur; Xanthium strumarium, pre-emergence, 312 h, scale 0 to 100 (0 no effect, 100 complete control), visual, 12 to 14 days, read-out: Plant response rating, Cocklebur): 10%
Plant response rating (0 = no effect, 100 = complete control), Goosegrass (goosegrass; 62 g ai/ha, preemergence): 10
pest or weed control at 250 g/ha (goosegrass; Eleusine indica, post-emergence, 312 h, Postemergence, 250 g ai/ha, scale 0 to 100, 0 no effect, 100 complete control, read-out: Plant response rating, Goosegrass): 80%
pest or weed control at 125 g/ha (goosegrass; Eleusine indica, post-emergence, 312 h, postemergence, scale 0 to 100, read-out: Plant response rating, Goosegrass): 80%
pest or weed control at 62 g/ha (goosegrass; Eleusine indica, post-emergence, 312 h, postemergence, 62 g ai/ha, scale 0 to 100, read-out: Plant response rating, Goosegrass): 80%
pest or weed control at 31 g/ha (goosegrass; Eleusine indica, pre-emergence, 312 h, 31 g ai/ha, preemergence, scale 0 to 100, read-out: Plant response rating, Goosegrass): 10%
pest or weed control at 125 g/ha (goosegrass; Eleusine indica, pre-emergence, 312 h, scale 0 (no effect) to 100 (complete control), visual, 12 to 14 days, read-out: Plant response rating, Goosegrass): 10%
Plant response rating (0 = no effect, 100 = complete control), Johnsongrass (johnsongrass; 62 g ai/ha, preemergence): 10
pest or weed control at 250 g/ha (johnsongrass; Sorghum halepense, post-emergence, Postemergence, 250 g ai/ha, scale 0 to 100, 0 no effect, 100 complete control, read-out: Plant response rating, Johnsongrass): 90%
pest or weed control at 125 g/ha (johnsongrass; Sorghum halepense, post-emergence, postemergence, scale 0 to 100, read-out: Plant response rating, Johnsongrass): 90%
pest or weed control at 62 g/ha (johnsongrass; Sorghum halepense, post-emergence, postemergence, 62 g ai/ha, scale 0 to 100, read-out: Plant response rating, Johnsongrass): 80%
pest or weed control at 31 g/ha (johnsongrass; Sorghum halepense, pre-emergence, 31 g ai/ha, preemergence, scale 0 to 100, read-out: Plant response rating, Johnsongrass): 0%
pest or weed control at 125 g/ha (johnsongrass; Sorghum halepense, pre-emergence, scale 0 (no effect) to 100 (complete control), visual, 12 to 14 days, read-out: Plant response rating, Johnsongrass): 10%
Plant response rating (0 = no effect, 100 = complete control), Pigweed (pigweed; 62 g ai/ha, preemergence): 40
pest or weed control at 250 g/ha (pigweed; Amaranthus retroflexus, post-emergence, Postemergence, 250 g ai/ha, scale 0 to 100, 0 no effect, 100 complete control, read-out: Plant response rating, Pigweed): 100%
pest or weed control at 125 g/ha (pigweed; Amaranthus retroflexus, post-emergence, postemergence, scale 0 to 100, read-out: Plant response rating, Pigweed): 100%
pest or weed control at 62 g/ha (pigweed; Amaranthus retroflexus, post-emergence, postemergence, 62 g ai/ha, scale 0 to 100, read-out: Plant response rating, Pigweed): 100%
pest or weed control at 31 g/ha (pigweed; Amaranthus retroflexus, pre-emergence, 31 g ai/ha, preemergence, scale 0 to 100, read-out: Plant response rating, Pigweed): 30%
pest or weed control at 125 g/ha (pigweed; Amaranthus retroflexus, pre-emergence, scale 0 (no effect) to 100 (complete control), visual, 12 to 14 days, read-out: Plant response rating, Pigweed): 100%
Plant response rating (0 = no effect, 100 = complete control), Soybean (soybean; 62 g ai/ha, preemergence): 0
plant injury at 250 g/ha (soybean; Glycine max, post-emergence, Postemergence, 250 g ai/ha, scale 0 to 100, 0 no effect, 100 complete control, read-out: Plant response rating, Soybean): 100%
plant injury at 125 g/ha (soybean; Glycine max, post-emergence, postemergence, scale 0 to 100, read-out: Plant response rating, Soybean): 90%
plant injury at 62 g/ha (soybean; Glycine max, post-emergence, postemergence, 62 g ai/ha, scale 0 to 100, read-out: Plant response rating, Soybean): 90%
plant injury at 31 g/ha (soybean; Glycine max, pre-emergence, 31 g ai/ha, preemergence, scale 0 to 100, read-out: Plant response rating, Soybean): 0%
plant injury at 125 g/ha (soybean; Glycine max, pre-emergence, scale 0 (no effect) to 100 (complete control), visual, 12 to 14 days, read-out: Plant response rating, Soybean): 0%
pest or weed control at 62 g/ha ([1]; 62 g ai/ha, scale 0 to 100 (0 no effect, 100 complete control), read-out: Sedge, Umbrella plant response rating): 70%
pest or weed control at 125 g/ha ([1]; 125 g ai/ha, scale of 0 to 100, 0 is no effect, 100 is complete control, read-out: Sedge, Umbrella plant response rating): 70%
pest or weed control at 250 g/ha ([1]; 250 g ai/ha, scale of 0 to 100, 0 is no effect, 100 is complete control, read-out: Sedge, Umbrella plant response rating): 70%
pest or weed control at 500 g/ha ([1]; 500 g ai/ha, visual rating after 12 to 14 days, scale 0 to 100 (0 no effect, 100 complete control), read-out: Plant response rating, Sedge, Umbrella): 70%
pest or weed control at 62 g/ha (ducksalad; 62 g ai/ha, scale 0 to 100 (0 no effect, 100 complete control), read-out: Ducksalad plant response rating): 20%
pest or weed control at 125 g/ha (ducksalad; 125 g ai/ha, scale of 0 to 100, 0 is no effect, 100 is complete control, read-out: Ducksalad plant response rating): 20%
pest or weed control at 250 g/ha (ducksalad; 250 g ai/ha, scale of 0 to 100, 0 is no effect, 100 is complete control, read-out: Ducksalad plant response rating): 20%
pest or weed control at 500 g/ha (ducksalad; 500 g ai/ha, visual rating after 12 to 14 days, scale 0 to 100 (0 no effect, 100 complete control), read-out: Plant response rating, Ducksalad): 40%
